Data from paper PMC7211202 (Investigational New Drugs, 2019).

Experiment: Patient incidence of adverse events (CTCAE version 4.0)
Assay type: in vivo
Settings: 240-mg dose expansion
Excerpt: Each patient was monitored for 21 days for the occurrence of dose-limiting toxicities (DLTs), defined as febrile neutropenia, neutropenic infection, grade 4 neutropenia lasting >7 days, grade ≥ 3 thrombocytopenia lasting >7 days (solid tumors only), grade 3 thrombocytopenia with grade ≥ 2 bleeding (solid tumors only), grade 3 or 4 thrombocytopenia with grade > 1 bleeding (multiple myeloma only), grade 4 thrombocytopenia (solid tumors only), or grade 4 thrombocytopenia lasting >14 days (multiple myeloma only), or as grade ≥ 3 nausea, vomiting, or diarrhea after support; grade 3 fatigue lasting >7 days; any other grade ≥ 3 adverse event (AE); grade ≥ 3 kidney injury (multiple myeloma only), or treatment-related AEs not returning to grade ≤ 1 (solid tumors only) per Common Terminology Criteria for Adverse Events (CTCAE), version 4.0. The MTD was defined as the maximum dose, at which the probability of a DLT was ≤25% in Part 1A and ≤ 33% in Parts 1B and 1C. Treatment continued until disease progression, intolerable toxicity, or withdrawal of consent.
AEs were recorded for all enrolled patients.

Compound: CC(C)[C@@H](CS(=O)(=O)C(C)C)N1C(=O)[C@@](C)(CC(=O)O)C[C@H](c2cccc(Cl)c2)[C@H]1c1ccc(Cl)cc1 [AMG 232]
- AE resulting in treatment discontinuation: fatigue: 2 n
- AE resulting in treatment discontinuation: vomiting: 4 n
- Patients with AEs resulting in treatment discontinuation: 13 (19%) n (%)
- Patients with any serious, treatment-related AE (DDLPS (n = 10)): 0 n (%)
- Patients with any treatment-emergent AE (DDLPS (n = 10)): 9 (90) n (%)
- Patients with any treatment-emergent serious AE (DDLPS (n = 10)): 4 (40) n (%)
- Patients with any treatment-related AE (DDLPS (n = 10)): 9 (90) n (%)
- Patients with any treatment-related AE, Grade 3 (DDLPS (n = 10)): 0 n (%)
- Patients with any treatment-related AE, Grade 4 (DDLPS (n = 10)): 0 n (%)
- Patients with any treatment-related AE, Grade 5 (DDLPS (n = 10)): 0 n (%)
- Serious, treatment-related AE: Dehydration (grade 3) (DDLPS (n = 10)): 0 n (%)
- Serious, treatment-related AE: Diarrhea (grade 3) (DDLPS (n = 10)): 0 n (%)
- Serious, treatment-related AE: Hyperamylasemia (grade 3) (DDLPS (n = 10)): 0 n (%)
- Serious, treatment-related AE: Hyperlipasemia (grade 3) (DDLPS (n = 10)): 0 n (%)
- Serious, treatment-related AE: Nausea (grade 3) (DDLPS (n = 10)): 0 n (%)
- Serious, treatment-related AE: Pulmonary embolism (grade 3) (DDLPS (n = 10)): 0 n (%)
- Serious, treatment-related AE: Vomiting (grade 3) (DDLPS (n = 10)): 0 n (%)
- Treatment-related AE: Anemia (DDLPS (n = 10)): 0 n (%)
- Treatment-related AE: Asthenia (DDLPS (n = 10)): 1 (10) n (%)
- Treatment-related AE: Decrease appetite (DDLPS (n = 10)): 4 (40) n (%)
- Treatment-related AE: Diarrhea (DDLPS (n = 10)): 6 (60) n (%)
- Treatment-related AE: Dysgeusia (DDLPS (n = 10)): 1 (10) n (%)
- Treatment-related AE: Fatigue (DDLPS (n = 10)): 7 (70) n (%)
- Treatment-related AE: Nausea (DDLPS (n = 10)): 8 (80) n (%)
- Treatment-related AE: Neutropenia (DDLPS (n = 10)): 0 n (%)
- Treatment-related AE: Thrombocytopenia (DDLPS (n = 10)): 1 (10) n (%)
- Treatment-related AE: Vomiting (DDLPS (n = 10)): 2 (20) n (%)
- Patients with any serious, treatment-related AE (ER + PR+ Breast (n = 8)): 2 (25) n (%)
- Patients with any treatment-emergent AE (ER + PR+ Breast (n = 8)): 8 (100) n (%)
- Patients with any treatment-emergent serious AE (ER + PR+ Breast (n = 8)): 3 (38) n (%)
- Patients with any treatment-related AE (ER + PR+ Breast (n = 8)): 8 (100) n (%)
- Patients with any treatment-related AE, Grade 3 (ER + PR+ Breast (n = 8)): 4 (50) n (%)
- Patients with any treatment-related AE, Grade 4 (ER + PR+ Breast (n = 8)): 0 n (%)
- Patients with any treatment-related AE, Grade 5 (ER + PR+ Breast (n = 8)): 0 n (%)
- Serious, treatment-related AE: Dehydration (grade 3) (ER + PR+ Breast (n = 8)): 0 n (%)
- Serious, treatment-related AE: Diarrhea (grade 3) (ER + PR+ Breast (n = 8)): 1 (13) n (%)
- Serious, treatment-related AE: Hyperamylasemia (grade 3) (ER + PR+ Breast (n = 8)): 0 n (%)
- Serious, treatment-related AE: Hyperlipasemia (grade 3) (ER + PR+ Breast (n = 8)): 0 n (%)
- Serious, treatment-related AE: Nausea (grade 3) (ER + PR+ Breast (n = 8)): 1 (13) n (%)
- Serious, treatment-related AE: Pulmonary embolism (grade 3) (ER + PR+ Breast (n = 8)): 0 n (%)
- Serious, treatment-related AE: Vomiting (grade 3) (ER + PR+ Breast (n = 8)): 1 (13) n (%)
- Treatment-related AE: Anemia (ER + PR+ Breast (n = 8)): 0 n (%)
- Treatment-related AE: Asthenia (ER + PR+ Breast (n = 8)): 1 (13) n (%)
- Treatment-related AE: Decrease appetite (ER + PR+ Breast (n = 8)): 5 (63) n (%)
- Treatment-related AE: Diarrhea (ER + PR+ Breast (n = 8)): 7 (88) n (%)
- Treatment-related AE: Dysgeusia (ER + PR+ Breast (n = 8)): 2 (25) n (%)
- Treatment-related AE: Fatigue (ER + PR+ Breast (n = 8)): 3 (38) n (%)
- Treatment-related AE: Nausea (ER + PR+ Breast (n = 8)): 6 (75) n (%)
- Treatment-related AE: Neutropenia (ER + PR+ Breast (n = 8)): 0 n (%)
- Treatment-related AE: Thrombocytopenia (ER + PR+ Breast (n = 8)): 0 n (%)
- Treatment-related AE: Vomiting (ER + PR+ Breast (n = 8)): 6 (75) n (%)
- Patients with any serious, treatment-related AE (ER + PR–Breast (n = 4)): 0 n (%)
- Patients with any treatment-emergent AE (ER + PR–Breast (n = 4)): 4 (100) n (%)
- Patients with any treatment-emergent serious AE (ER + PR–Breast (n = 4)): 1 (25) n (%)
- Patients with any treatment-related AE (ER + PR–Breast (n = 4)): 4 (100) n (%)
- Patients with any treatment-related AE, Grade 3 (ER + PR–Breast (n = 4)): 1 (25) n (%)
- Patients with any treatment-related AE, Grade 4 (ER + PR–Breast (n = 4)): 0 n (%)
- Patients with any treatment-related AE, Grade 5 (ER + PR–Breast (n = 4)): 0 n (%)
- Serious, treatment-related AE: Dehydration (grade 3) (ER + PR–Breast (n = 4)): 0 n (%)
- Serious, treatment-related AE: Diarrhea (grade 3) (ER + PR–Breast (n = 4)): 0 n (%)
- Serious, treatment-related AE: Hyperamylasemia (grade 3) (ER + PR–Breast (n = 4)): 0 n (%)
- Serious, treatment-related AE: Hyperlipasemia (grade 3) (ER + PR–Breast (n = 4)): 0 n (%)
- Serious, treatment-related AE: Nausea (grade 3) (ER + PR–Breast (n = 4)): 0 n (%)
- Serious, treatment-related AE: Pulmonary embolism (grade 3) (ER + PR–Breast (n = 4)): 0 n (%)
- Serious, treatment-related AE: Vomiting (grade 3) (ER + PR–Breast (n = 4)): 0 n (%)
- Treatment-related AE: Anemia (ER + PR–Breast (n = 4)): 1 (25) n (%)
- Treatment-related AE: Asthenia (ER + PR–Breast (n = 4)): 1 (25) n (%)
- Treatment-related AE: Decrease appetite (ER + PR–Breast (n = 4)): 3 (75) n (%)
- Treatment-related AE: Diarrhea (ER + PR–Breast (n = 4)): 4 (100) n (%)
- Treatment-related AE: Dysgeusia (ER + PR–Breast (n = 4)): 0 n (%)
- Treatment-related AE: Fatigue (ER + PR–Breast (n = 4)): 0 n (%)
- Treatment-related AE: Nausea (ER + PR–Breast (n = 4)): 3 (75) n (%)
- Treatment-related AE: Neutropenia (ER + PR–Breast (n = 4)): 0 n (%)
- Treatment-related AE: Thrombocytopenia (ER + PR–Breast (n = 4)): 0 n (%)
- Treatment-related AE: Vomiting (ER + PR–Breast (n = 4)): 2 (50) n (%)
- Patients with any serious, treatment-related AE (GBM (n = 10)): 1 (10) n (%)
- Patients with any treatment-emergent AE (GBM (n = 10)): 10 (100) n (%)
- Patients with any treatment-emergent serious AE (GBM (n = 10)): 7 (70) n (%)
- Patients with any treatment-related AE (GBM (n = 10)): 10 (100) n (%)
- Patients with any treatment-related AE, Grade 3 (GBM (n = 10)): 4 (40) n (%)
- Patients with any treatment-related AE, Grade 4 (GBM (n = 10)): 0 n (%)
- Patients with any treatment-related AE, Grade 5 (GBM (n = 10)): 0 n (%)
- Serious, treatment-related AE: Dehydration (grade 3) (GBM (n = 10)): 0 n (%)
- Serious, treatment-related AE: Diarrhea (grade 3) (GBM (n = 10)): 0 n (%)
- Serious, treatment-related AE: Hyperamylasemia (grade 3) (GBM (n = 10)): 1 (10) n (%)
- Serious, treatment-related AE: Hyperlipasemia (grade 3) (GBM (n = 10)): 1 (10) n (%)
- Serious, treatment-related AE: Nausea (grade 3) (GBM (n = 10)): 0 n (%)
- Serious, treatment-related AE: Pulmonary embolism (grade 3) (GBM (n = 10)): 0 n (%)
- Serious, treatment-related AE: Vomiting (grade 3) (GBM (n = 10)): 0 n (%)
- Treatment-related AE: Anemia (GBM (n = 10)): 0 n (%)
- Treatment-related AE: Asthenia (GBM (n = 10)): 0 n (%)
- Treatment-related AE: Decrease appetite (GBM (n = 10)): 1 (10) n (%)
- Treatment-related AE: Diarrhea (GBM (n = 10)): 5 (50) n (%)
- Treatment-related AE: Dysgeusia (GBM (n = 10)): 1 (10) n (%)
- Treatment-related AE: Fatigue (GBM (n = 10)): 6 (60) n (%)
- Treatment-related AE: Nausea (GBM (n = 10)): 4 (40) n (%)
- Treatment-related AE: Neutropenia (GBM (n = 10)): 2 (20) n (%)
- Treatment-related AE: Thrombocytopenia (GBM (n = 10)): 2 (20) n (%)
- Treatment-related AE: Vomiting (GBM (n = 10)): 3 (30) n (%)
- Patients with any serious, treatment-related AE (Multiple Myeloma (n = 10)): 2 (20) n (%)
- Patients with any treatment-emergent AE (Multiple Myeloma (n = 10)): 10 (100) n (%)
- Patients with any treatment-emergent serious AE (Multiple Myeloma (n = 10)): 4 (40) n (%)
- Patients with any treatment-related AE (Multiple Myeloma (n = 10)): 10 (100) n (%)
- Patients with any treatment-related AE, Grade 3 (Multiple Myeloma (n = 10)): 6 (60) n (%)
- Patients with any treatment-related AE, Grade 4 (Multiple Myeloma (n = 10)): 3 (30) n (%)
- Patients with any treatment-related AE, Grade 5 (Multiple Myeloma (n = 10)): 0 n (%)
- Serious, treatment-related AE: Dehydration (grade 3) (Multiple Myeloma (n = 10)): 0 n (%)
- Serious, treatment-related AE: Diarrhea (grade 3) (Multiple Myeloma (n = 10)): 0 n (%)
- Serious, treatment-related AE: Hyperamylasemia (grade 3) (Multiple Myeloma (n = 10)): 0 n (%)
- Serious, treatment-related AE: Hyperlipasemia (grade 3) (Multiple Myeloma (n = 10)): 0 n (%)
- Serious, treatment-related AE: Nausea (grade 3) (Multiple Myeloma (n = 10)): 0 n (%)
- Serious, treatment-related AE: Pulmonary embolism (grade 3) (Multiple Myeloma (n = 10)): 0 n (%)
- Serious, treatment-related AE: Vomiting (grade 3) (Multiple Myeloma (n = 10)): 2 (20) n (%)
- Treatment-related AE: Anemia (Multiple Myeloma (n = 10)): 1 (10) n (%)
- Treatment-related AE: Asthenia (Multiple Myeloma (n = 10)): 4 (40) n (%)
- Treatment-related AE: Decrease appetite (Multiple Myeloma (n = 10)): 4 (40) n (%)
- Treatment-related AE: Diarrhea (Multiple Myeloma (n = 10)): 7 (70) n (%)
- Treatment-related AE: Dysgeusia (Multiple Myeloma (n = 10)): 2 (20) n (%)
- Treatment-related AE: Fatigue (Multiple Myeloma (n = 10)): 2 (20) n (%)
- Treatment-related AE: Nausea (Multiple Myeloma (n = 10)): 4 (40) n (%)
- Treatment-related AE: Neutropenia (Multiple Myeloma (n = 10)): 3 (30) n (%)
- Treatment-related AE: Thrombocytopenia (Multiple Myeloma (n = 10)): 3 (30) n (%)
- Treatment-related AE: Vomiting (Multiple Myeloma (n = 10)): 4 (40) n (%)
- Patients with any serious, treatment-related AE (Other Solid (n = 16)): 0 n (%)
- Patients with any treatment-emergent AE (Other Solid (n = 16)): 16 (100) n (%)
- Patients with any treatment-emergent serious AE (Other Solid (n = 16)): 5 (31) n (%)
- Patients with any treatment-related AE (Other Solid (n = 16)): 14 (88) n (%)
- Patients with any treatment-related AE, Grade 3 (Other Solid (n = 16)): 4 (25) n (%)
- Patients with any treatment-related AE, Grade 4 (Other Solid (n = 16)): 2 (13) n (%)
- Patients with any treatment-related AE, Grade 5 (Other Solid (n = 16)): 0 n (%)
- Serious, treatment-related AE: Dehydration (grade 3) (Other Solid (n = 16)): 0 n (%)
- Serious, treatment-related AE: Diarrhea (grade 3) (Other Solid (n = 16)): 0 n (%)
- Serious, treatment-related AE: Hyperamylasemia (grade 3) (Other Solid (n = 16)): 0 n (%)
